Measurements reported in patent US8173120B2, “Method of preventing reduced feed intake in animals and treatment of disease conditions” (Precision Nutrition Pty Ltd, priority 2005, dated 2012).

Key:
[1] = system: lactic acid producing bacteria; test: in vitro function assay: lactic acid and pH after incubation of faecal/colonic samples from horses fed virginiamycin pellets; type: in vivo
Excerpt: Twelve horses were housed individually and fed 2.5 kg/d of a commercial horse concentrate each morning. Approximately 6 kg of medium quality lucerne hay was fed after animals had consumed the concentrate.
The experiment was run in three periods with 4 animals in the stables during each period. Each period lasted 12 days: five days to allow adaptation to the stables and the dietary regime, and then 7 days when medicated pellets containing different concentrations of virginiamycin were fed. Faecal samples were taken on the day before feeding medicated feed and then on days 2, 4 and 6 of feeding the medicated pellets.
The effectiveness of each dose rate and time on treatment was determined using an in vitro function assay to determine the amount of lactic acid produced during in vitro incubation of faecal material or samples taken from the distal colon. The fermentation of faecal material was carried out as follows. Fresh faecal material was obtained prior to the morning feed. Where warm material was available in the stable this was used, otherwise a rectal sample was obtained. A sub-sample of 150 g was mixed with an equal volume of distilled water and then strained through nylon gauze. Aliquots of supernatant were dispensed into 3 replicate tubes (4 ml/tube) and 1 ml of glucose solution (50 mg glucose/ml) was added before pricking the lid of the plastic vial with a 25 g needle and incubating for 20 to 24 hours at 37°. Following incubation the measurements of pH were made before centrifugation of a sub-sample prior to L-lactic acid analysis.
The results of the in vitro function assay are summarised in Tables 2 and 3 and represented graphically in FIG. 3. It is relevant to note that the level of glucose used in the in vitro incubations is effectively higher than any amount of carbohydrate which could be used in vivo. In the in vitro model, no volatile fatty acids are removed from the incubation flask through “absorption”.
The result of this is that the pH drops in vitro by more than it would in vivo and that a lactate-based fermentation develops more readily. It is therefore probably unrealistic to expect that lactate production can be completely controlled in this in vitro incubation model. Initially it was considered that the “baseline” in the in vitro model could be set around 10 mmol/L for an effective dose rate of virginiamycin. However, given the variable response around the 0.5 mg/kg dose rate in terms of lactic acid accumulation in the in vitro model it may be advisable to set a lower threshold for mean lactic acid concentration in determining the effective dose rate.

[2] = feed intake on introduction of virginiamycin into the diet (general statements); type: in vivo, sheep, cattle and horses
[3] = horse 1, 640 mg/d, 1.422 mg/kg, 2 days on medicated feed
[4] = horse 1, 640 mg/d, 1.422 mg/kg, 6 days on medicated feed
[5] = horse 2, 160 mg/d, 0.343 mg/kg, 2 days on medicated feed
[6] = horse 2, 160 mg/d, 0.343 mg/kg, 4 days on medicated feed
[7] = horse 3, 1280 mg/d, 2.639 mg/kg, 2 days on medicated feed
[8] = horse 3, 1280 mg/d, 2.639 mg/kg, 4 days on medicated feed
[9] = horse 3, 1280 mg/d, 2.639 mg/kg, 6 days on medicated feed
[10] = horse 4, 20 mg/d, 0.042 mg/kg, 2 days on medicated feed
[11] = horse 4, 20 mg/d, 0.042 mg/kg, 4 days on medicated feed
[12] = horse 4, 20 mg/d, 0.042 mg/kg, 6 days on medicated feed
[13] = horse 5, 160 mg/d, 0.359 mg/kg, 2 days on medicated feed
[14] = horse 5, 160 mg/d, 0.359 mg/kg, 4 days on medicated feed
[15] = horse 5, 160 mg/d, 0.359 mg/kg, 6 days on medicated feed
[16] = horse 6, 40 mg/d, 0.091 mg/kg, 2 days on medicated feed
[17] = horse 6, 40 mg/d, 0.091 mg/kg, 4 days on medicated feed
[18] = horse 7, 640 mg/d, 1.475 mg/kg, 2 days on medicated feed
[19] = horse 7, 640 mg/d, 1.475 mg/kg, 4 days on medicated feed
[20] = horse 7, 640 mg/d, 1.475 mg/kg, 6 days on medicated feed
[21] = horse 8, 80 mg/d, 0.154 mg/kg, 2 days on medicated feed
[22] = horse 8, 80 mg/d, 0.154 mg/kg, 6 days on medicated feed
[23] = horse 9, 80 mg/d, 0.180 mg/kg, 2 days on medicated feed
[24] = horse 9, 80 mg/d, 0.180 mg/kg, 4 days on medicated feed
[25] = horse 10, 320 mg/d, 0.702 mg/kg, 2 days on medicated feed
[26] = horse 10, 320 mg/d, 0.702 mg/kg, 4 days on medicated feed
[27] = horse 11, 160 mg/d, 0.432 mg/kg, 2 days on medicated feed
[28] = horse 11, 160 mg/d, 0.432 mg/kg, 6 days on medicated feed
[29] = horse 12, 320 mg/d, 0.693 mg/kg, 2 days on medicated feed
[30] = horse 12, 320 mg/d, 0.693 mg/kg, 6 days on medicated feed

For virginiamycin, the “control of lactic acid production” value ([1]; 0.4 to 0.7 mg per kg bodyweight per day, after three to four days) was “partial and variable levels of controlling lactic acid production”, the “control of lactic acid producing bacteria in faecal/colonic digesta” value ([1]; 1.4 and 2.6 mg/kg body weight, 48 hours after first treatment) was “good control of lactic acid producing bacteria” and the “capacity for lactic acid production” value ([1]; 1.4 and 2.6 mg/kg body weight, days 4 and 6 as well as day 2) was “remained low”. For the same substance, the “capacity for lactic acid production” value ([1]; average of 0.4 and 0.7 mg/kg bodyweight per day, days 2, 4 and 6, response more variable and less complete than higher dose rates) was “reduction in capacity for lactic acid production”, the “control of lactic acid production” value ([1]; dose rates over 1.4 mg per kg body weight, after two days of treatment) was “almost complete control” and the “L-lactate concentration following incubation of faecal samples, Mean” value [1, 3] was 0 mmol/L. The “pH measured following incubation of faecal samples, Mean” value (“pH measured following incubation” for short) [1, 3] was 5.11, the “L-lactate concentration following incubation of faecal samples, Mean” value [1, 4] was 4 mmol/L and the “pH measured following incubation” value [1, 4] was 4.94. The “L-lactate concentration following incubation of faecal samples, Mean” value [1, 5] was 17 mmol/L, the “pH measured following incubation” value [1, 5] was 4.61 and the “L-lactate concentration following incubation of faecal samples, Mean” value [1, 6] was 21 mmol/L. For the same substance, the “pH measured following incubation” value [1, 6] was 4.76, the “L-lactate concentration following incubation of faecal samples, Mean” value ([1]; horse 2, 160 mg/d, 0.343 mg/kg, 6 days on medicated feed) was 12 mmol/L and the “L-lactate concentration following incubation of faecal samples, Mean” value [1, 7] was 0 mmol/L. For the same substance, the “pH measured following incubation” value [1, 7] was 4.43, the “L-lactate concentration following incubation of faecal samples, Mean” value [1, 8] was 0 mmol/L and the “pH measured following incubation” value [1, 8] was 4.71. For the same substance, the “L-lactate concentration following incubation of faecal samples, Mean” value [1, 9] was 1 mmol/L, the “pH measured following incubation” value [1, 9] was 4.59 and the “L-lactate concentration following incubation of faecal samples, Mean” value [1, 10] was 47 mmol/L. The “pH measured following incubation” value [1, 10] was 3.63, the “L-lactate concentration following incubation of faecal samples, Mean” value [1, 11] was 47 mmol/L and the “pH measured following incubation” value [1, 11] was 4.02. The “L-lactate concentration following incubation of faecal samples, Mean” value [1, 12] was 31 mmol/L, the “pH measured following incubation” value [1, 12] was 4.28 and the “L-lactate concentration following incubation of faecal samples, Mean” value [1, 13] was 0 mmol/L. For the same substance, the “pH measured following incubation” value [1, 13] was 4.48, the “L-lactate concentration following incubation of faecal samples, Mean” value [1, 14] was 0 mmol/L and the “pH measured following incubation” value [1, 14] was 4.73. For the same substance, the “L-lactate concentration following incubation of faecal samples, Mean” value [1, 15] was 0 mmol/L, the “pH measured following incubation” value [1, 15] was 5.09 and the “L-lactate concentration following incubation of faecal samples, Mean” value [1, 16] was 23 mmol/L. The “pH measured following incubation” value [1, 16] was 4.11, the “L-lactate concentration following incubation of faecal samples, Mean” value [1, 17] was 25 mmol/L and the “pH measured following incubation” value [1, 17] was 4.11. For the same substance, the “L-lactate concentration following incubation of faecal samples, Mean” value ([1]; horse 6, 40 mg/d, 0.091 mg/kg, 6 days on medicated feed) was 24 mmol/L, the “L-lactate concentration following incubation of faecal samples, Mean” value [1, 18] was 1 mmol/L and the “pH measured following incubation” value [1, 18] was 4.85. For the same substance, the “L-lactate concentration following incubation of faecal samples, Mean” value [1, 19] was 1 mmol/L, the “pH measured following incubation” value [1, 19] was 4.64 and the “L-lactate concentration following incubation of faecal samples, Mean” value [1, 20] was 1 mmol/L. The “pH measured following incubation” value [1, 20] was 4.67, the “L-lactate concentration following incubation of faecal samples, Mean” value [1, 21] was 5 mmol/L and the “pH measured following incubation” value [1, 21] was 4.41. The “L-lactate concentration following incubation of faecal samples, Mean” value [1, 22] was 44 mmol/L, the “pH measured following incubation” value [1, 22] was 4.36 and the “L-lactate concentration following incubation of faecal samples, Mean” value [1, 23] was 4 mmol/L. For the same substance, the “pH measured following incubation” value [1, 23] was 4.83, the “L-lactate concentration following incubation of faecal samples, Mean” value [1, 24] was 37 mmol/L and the “pH measured following incubation” value [1, 24] was 4.25. The “L-lactate concentration following incubation of faecal samples, Mean” value ([1]; horse 9, 80 mg/d, 0.180 mg/kg, 6 days on medicated feed) was 29 mmol/L, the “L-lactate concentration following incubation of faecal samples, Mean” value [1, 25] was 1 mmol/L and the “pH measured following incubation” value [1, 25] was 4.67. The “L-lactate concentration following incubation of faecal samples, Mean” value [1, 26] was 1 mmol/L, the “pH measured following incubation” value [1, 26] was 5.06 and the “L-lactate concentration following incubation of faecal samples, Mean” value ([1]; horse 10, 320 mg/d, 0.702 mg/kg, 6 days on medicated feed) was 15 mmol/L. For the same substance, the “L-lactate concentration following incubation of faecal samples, Mean” value [1, 27] was 4 mmol/L, the “pH measured following incubation” value [1, 27] was 4.54 and the “L-lactate concentration following incubation of faecal samples, Mean” value [1, 28] was 19 mmol/L. The “pH measured following incubation” value [1, 28] was 4.12, the “L-lactate concentration following incubation of faecal samples, Mean” value [1, 29] was 36 mmol/L and the “pH measured following incubation” value [1, 29] was 3.85. The “L-lactate concentration following incubation of faecal samples, Mean” value [1, 30] was 3 mmol/L, the “pH measured following incubation” value [1, 30] was 4.93 and the “prevention of over production of lactic acid” value ([1]; horses, low dose rates such as 0.1 mg per kg bodyweight per day) was “may not be effective in preventing over production of lactic acid”. For the same substance, the “feed intake compared to pre-medication levels” value ([2]; gradually increasing doses) was “no detectable decrease in feed intake”, the “feed intake, average, of the pretreatment level” value ([2]; sudden introduction of the full dose rate) was “around 80%” and the “reduction of feed intake” value ([2]; sudden introduction to sheep, cattle or horses at 0.5 mg per kg body weight and above, or 20 g/tonne and above) was no less than 20%.
